Here are results for 13 compounds from patent US9175003B2, “Substituted azoanthracene derivatives and intermediates for preparation thereof” (TransTech Pharma, LLC, priority 2009, dated 2015).

The structures appear in SMILES notation.

The target of the assay is human GLP-1 receptor (Homo sapiens (Human), UniProt P43220). Particulars: read-out: Mean EC50; cAMP, HTRF detection, 30 min at 37° C., HEK-293 cells expressing cloned human GLP-1 receptor.
Chain of human GLP-1 receptor (P43220 24-463): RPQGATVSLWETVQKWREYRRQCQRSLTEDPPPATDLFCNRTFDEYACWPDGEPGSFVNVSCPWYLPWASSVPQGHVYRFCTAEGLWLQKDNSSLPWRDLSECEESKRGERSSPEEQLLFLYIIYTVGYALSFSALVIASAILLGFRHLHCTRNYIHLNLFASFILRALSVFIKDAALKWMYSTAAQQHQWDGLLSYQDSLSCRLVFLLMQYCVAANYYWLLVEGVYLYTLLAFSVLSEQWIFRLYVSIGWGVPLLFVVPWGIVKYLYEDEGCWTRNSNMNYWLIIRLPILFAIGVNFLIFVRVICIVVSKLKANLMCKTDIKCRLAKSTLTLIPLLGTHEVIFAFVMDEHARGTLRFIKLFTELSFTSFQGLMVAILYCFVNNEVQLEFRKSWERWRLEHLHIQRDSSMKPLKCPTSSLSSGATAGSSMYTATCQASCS
`CC[C@@H](c1ccccc1)N1Cc2cc3c(cc2C[C@H]1C(=O)N[C@@H](Cc1ccc(-c2ccnc(CF)c2)cc1)C(=O)O)OC[C@H](c1ccc(OCc2ccc(Cl)c(Cl)c2)cc1)O3` [Example 212, (S)-2-{[(3S,8S)-3-[4-(3,4-Dichloro-benzyloxy)-phenyl]-7-((S)-1-phenyl-propyl)-2,3,6,7,8,9-hexahydro-[1,4]dioxino[2,3-g]isoquinoline-8-carbonyl]-amino}-3-[4-(2-fluoromethyl-pyridin-4-yl)-phenyl]-propionic acid]: the EC50 came to 34 nM. Consider `Cc1nc(C(=O)N2Cc3cc4c(cc3C[C@H]2C(=O)N[C@@H](Cc2ccc(-c3ccnc(C)c3C)cc2)C(=O)O)OC[C@H](c2ccc(OCc3ccc(Cl)c(Cl)c3)cc2)O4)c(C)o1` [Example 216, (S)-2-{[(3S,8S)-3-[4-(3,4-Dichloro-benzyloxy)-phenyl]-7-(2,5-dimethyl-oxazole-4-carbonyl)-2,3,6,7,8,9-hexahydro-[1,4]dioxino[2,3-g]isoquinoline-8-carbonyl]-amino}-3-[4-(2,3-dimethyl-pyridin-4-yl)-phenyl]-propionic acid], for which the EC50 was determined as 17 nM.

Turning to `Cc1nc(C(=O)N2Cc3cc4c(cc3C[C@H]2C(=O)N[C@@H](Cc2ccc(-c3ccnc(C)c3C)cc2)C(=O)O)OC[C@H](c2ccc(OCc3ccc(C)c(C)c3)cc2)O4)c(C)o1` [Example 217, (S)-2-{[(3S,8S)-3-[4-(3,4-Dimethyl-benzyloxy)-phenyl]-7-(2,5-dimethyl-oxazole-4-carbonyl)-2,3,6,7,8,9-hexahydro-[1,4]dioxino[2,3-g]isoquinoline-8-carbonyl]-amino}-3-[4-(2,3-dimethyl-pyridin-4-yl)-phenyl]-propionic acid], the EC50 is 24 nM.

`Cc1nc(C(=O)N2Cc3cc4c(cc3C[C@H]2C(=O)N[C@@H](Cc2ccc(-c3ccnc(C)c3C)cc2)C(=O)O)OC[C@H](c2ccc(OC[C@H]3CC[C@H](C)CC3)cc2)O4)c(C)o1` [Example 222, (S)-2-({(3S,8S)-7-(2,5-Dimethyl-oxazole-4-carbonyl)-3-[4-(trans-4-methyl-cyclohexyl-methoxy)-phenyl]-2,3,6,7,8,9-hexahydro-[1,4]dioxino[2,3-g]isoquinoline-8-carbonyl}-amino)-3-[4-(2,3-dimethyl-pyridin-4-yl)-phenyl]-propionic acid]: the EC50 is 75 nM. The value for `Cc1nc(C(=O)N2Cc3cc4c(cc3C[C@H]2C(=O)N[C@@H](Cc2ccc(-c3ccnc(C)c3C)cc2)C(=O)O)OC[C@H](c2ccc(OCC3CCC(F)(F)CC3)cc2)O4)c(C)o1` [Example 223, (S)-2-{[(3S,8S)-3-[4-(4,4-Difluoro-cyclohexylmethoxy)-phenyl]-7-(2,5-dimethyl-oxazole-4-carbonyl)-2,3,6,7,8,9-hexahydro-[1,4]dioxino[2,3-g]isoquinoline-8-carbonyl]-amino}-3-[4-(2,3-dimethyl-pyridin-4-yl)-phenyl]propionic acid] was 176 nM; that for `Cc1nc(C(=O)N2Cc3cc4c(cc3C[C@H]2C(=O)N[C@@H](Cc2ccc(-c3ccnc(C)c3C)cc2)C(=O)O)OC[C@H](c2ccc(OCC3CCC(C(F)(F)F)CC3)cc2)O4)c(C)o1` (stereo partly drawn) [Example 225, (S)-2-({(3S,8S)-7-(2,5-Dimethyl-oxazole-4-carbonyl)-3-[4-(4-trifluoromethyl-cyclohexylmethoxy)-phenyl]-2,3,6,7,8,9-hexahydro-[1,4]dioxino[2,3-g]isoquinoline-8-carbonyl}-amino)-3-[4-(2,3-dimethyl-pyridin-4-yl)-phenyl]-propionic acid] was 183 nM. In the case of `Cc1nccc(-c2ccc(C[C@H](NC(=O)[C@@H]3Cc4cc5c(cc4CN3Cc3ncccc3F)O[C@@H](c3ccc(OCc4ccc(Cl)c(Cl)c4)cc3)CO5)C(=O)O)cc2)c1C` [Example 228, (S)-2-{[(3S,8S)-3-[4-(3,4-Dichloro-benzyloxy)-phenyl]-7-(3-fluoro-pyridin-2-ylmethyl)-2,3,6,7,8,9-hexahydro-[1,4]dioxino[2,3-g]isoquinoline-8-carbonyl]-amino}-3-[4-(2,3-dimethyl-pyridin-4-yl)-phenyl]-propionic acid] it was 22 nM; in that of `COc1cccc(CN2Cc3cc4c(cc3C[C@H]2C(=O)N[C@@H](Cc2ccc(-c3ccnc(C)c3C)cc2)C(=O)O)OC[C@H](c2ccc(OCc3ccc(Cl)c(Cl)c3)cc2)O4)n1` [Example 229, (S)-2-{[(3S,8S)-3-[4-(3,4-Dichloro-benzyloxy)-phenyl]-7-(6-methoxy-pyridin-2-ylmethyl)-2,3,6,7,8,9-hexahydro-[1,4]dioxino[2,3-g]isoquinoline-8-carbonyl]-amino}-3-[4-(2,3-dimethyl-pyridin-4-yl)phenyl]-propionic acid], 76 nM. Turning to `Cc1nccc(-c2ccc(C[C@H](NC(=O)[C@@H]3Cc4cc5c(cc4CN3Cc3nccn3C)O[C@@H](c3ccc(OCc4ccc(Cl)c(Cl)c4)cc3)CO5)C(=O)O)cc2)c1C` [Example 230, (S)-2-{[(3S,8S)-3-[4-(3,4-Dichloro-benzyloxy)-phenyl]-7-(1-methyl-1H-imidazol-2-ylmethyl)-2,3,6,7,8,9-hexahydro-[1,4]dioxino[2,3-g]isoquinoline-8-carbonyl]-amino}-3-[4-(2,3-dimethyl-pyridin-4-yl)phenyl]-propionic acid], the EC50 came to 18 nM. In the case of `Cc1nccc(-c2ccc(C[C@H](NC(=O)[C@@H]3Cc4cc5c(cc4CN3Cc3nccs3)O[C@@H](c3ccc(OCc4ccc(Cl)c(Cl)c4)cc3)CO5)C(=O)O)cc2)c1C` [Example 231, (S)-2-({(3S,8S)-3-[4-(3,4-Dichloro-benzyloxy)-phenyl]-7-thiazol-2-ylmethyl-2,3,6,7,8,9-hexahydro-[1,4]dioxino[2,3-g]isoquinoline-8-carbonyl}-amino)-3-[4-(2,3-dimethyl-pyridin-4-yl)-phenyl]-propionic acid] it was 39 nM. The value for `Cc1nc(CN2Cc3cc4c(cc3C[C@H]2C(=O)N[C@@H](Cc2ccc(-c3ccnc(C)c3C)cc2)C(=O)O)OC[C@H](c2ccc(OCc3ccc(Cl)c(Cl)c3)cc2)O4)c(C)o1` [Example 232, (S)-2-{[(3S,8S)-3-[4-(3,4-Dichloro-benzyloxy)-phenyl]-7-(2,5-dimethyl-oxazol-4-ylmethyl)-2,3,6,7,8,9-hexahydro-[1,4]dioxino[2,3-g]isoquinoline-8-carbonyl]-amino}-3-[4-(2,3-dimethyl-pyridin-4-yl)-phenyl]-propionic acid] was 133 nM; that for `Cc1nccc(-c2ccc(C[C@H](NC(=O)[C@@H]3Cc4cc5c(cc4CN3C(=O)c3ccccn3)O[C@@H](c3ccc(OCc4ccc(Cl)c(Cl)c4)cc3)CO5)C(=O)O)cc2)c1C` [Example 236, (S)-2-{[(3S,8S)-3-[4-(3,4-Dichloro-benzyloxy)-phenyl]-7-(pyridine-2-carbonyl)-2,3,6,7,8,9-hexahydro-[1,4]dioxino[2,3-g]isoquinoline-8-carbonyl]-amino}-3-[4-(2,3-dimethyl-pyridin-4-yl)-phenyl]-propionic acid] was 56 nM; that for `Cc1ncoc1C(=O)N1Cc2cc3c(cc2C[C@H]1C(=O)N[C@@H](Cc1ccc(-c2ccnc(C)c2C)cc1)C(=O)O)OC[C@H](c1ccc(OCc2ccc(Cl)c(Cl)c2)cc1)O3` [Example 238, (S)-2-{[(3S,8S)-3-[4-(3,4-Dichloro-benzyloxy)-phenyl]-7-(4-methyl-oxazole-5-carbonyl)-2,3,6,7,8,9-hexahydro-[1,4]dioxino[2,3-g]isoquinoline-8-carbonyl]-amino}-3-[4-(2,3-dimethyl-pyridin-4-yl)-phenyl]-propionic acid] was 146 nM.
